From ChEMBL document CHEMBL3784917, “Recent Progress in Histone Demethylase Inhibitors” (J Med Chem, 2016) come the findings set out here.

SMILES strings stand for the structures.

Assay [1] addresses Lysine-specific demethylase 4E (Homo sapiens, UniProt B2RXH2). The assay is described as follows: Inhibition of KDM4E (unknown origin) after 24 hrs by alphascreen assay. (In general: In Alpha technology, singlet oxygen from a donor bead excites a nearby acceptor bead.)
Assay [2] deals with T1, Lysine-specific demethylase 3A (Homo sapiens, UniProt Q9Y4C1).
T1 sequence (Q9Y4C1 whole entry): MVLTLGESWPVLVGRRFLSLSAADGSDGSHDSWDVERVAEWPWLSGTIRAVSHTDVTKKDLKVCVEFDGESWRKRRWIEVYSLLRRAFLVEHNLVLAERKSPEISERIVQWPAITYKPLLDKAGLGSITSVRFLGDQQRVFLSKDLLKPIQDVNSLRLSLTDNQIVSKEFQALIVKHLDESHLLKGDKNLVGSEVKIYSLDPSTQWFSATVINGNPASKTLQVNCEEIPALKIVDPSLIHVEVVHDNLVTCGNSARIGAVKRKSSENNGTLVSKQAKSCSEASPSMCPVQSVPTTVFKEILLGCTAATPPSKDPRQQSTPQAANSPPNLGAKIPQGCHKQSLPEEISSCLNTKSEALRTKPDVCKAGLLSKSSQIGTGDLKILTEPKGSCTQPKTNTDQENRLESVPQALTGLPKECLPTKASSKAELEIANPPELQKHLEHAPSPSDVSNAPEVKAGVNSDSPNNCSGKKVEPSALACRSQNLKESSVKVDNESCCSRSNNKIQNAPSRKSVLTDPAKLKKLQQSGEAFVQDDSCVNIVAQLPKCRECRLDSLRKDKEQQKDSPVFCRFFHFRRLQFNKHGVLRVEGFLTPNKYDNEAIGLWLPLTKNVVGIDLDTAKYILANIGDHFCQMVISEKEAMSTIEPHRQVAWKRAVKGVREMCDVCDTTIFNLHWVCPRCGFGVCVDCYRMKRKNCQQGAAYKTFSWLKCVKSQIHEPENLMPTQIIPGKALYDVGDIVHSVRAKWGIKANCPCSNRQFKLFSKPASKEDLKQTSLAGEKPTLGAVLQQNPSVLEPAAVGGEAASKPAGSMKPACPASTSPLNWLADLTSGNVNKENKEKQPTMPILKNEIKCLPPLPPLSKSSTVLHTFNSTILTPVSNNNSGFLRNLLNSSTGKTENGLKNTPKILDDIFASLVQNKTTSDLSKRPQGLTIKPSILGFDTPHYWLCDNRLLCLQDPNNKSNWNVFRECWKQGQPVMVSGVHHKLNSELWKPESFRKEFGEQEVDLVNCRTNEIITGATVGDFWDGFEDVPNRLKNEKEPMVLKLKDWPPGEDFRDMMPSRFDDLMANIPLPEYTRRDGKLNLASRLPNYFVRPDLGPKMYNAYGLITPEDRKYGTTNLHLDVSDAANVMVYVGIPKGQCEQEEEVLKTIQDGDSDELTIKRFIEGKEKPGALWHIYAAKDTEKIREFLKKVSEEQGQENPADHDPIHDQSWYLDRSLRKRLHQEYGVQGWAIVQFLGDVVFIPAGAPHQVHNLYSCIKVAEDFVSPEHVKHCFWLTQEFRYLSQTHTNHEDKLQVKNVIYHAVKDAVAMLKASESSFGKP
The assay is described as follows: Inhibition of KDM3A (unknown origin) after 24 hrs by alphascreen assay.

The target in assay [3] is T2, Lysine-specific demethylase 5C (Homo sapiens, UniProt P41229). The assay is described as follows: Inhibition of KDM5C (unknown origin) after 24 hrs by alphascreen assay.
T2 sequence (P41229 whole entry, the tested form may be a part): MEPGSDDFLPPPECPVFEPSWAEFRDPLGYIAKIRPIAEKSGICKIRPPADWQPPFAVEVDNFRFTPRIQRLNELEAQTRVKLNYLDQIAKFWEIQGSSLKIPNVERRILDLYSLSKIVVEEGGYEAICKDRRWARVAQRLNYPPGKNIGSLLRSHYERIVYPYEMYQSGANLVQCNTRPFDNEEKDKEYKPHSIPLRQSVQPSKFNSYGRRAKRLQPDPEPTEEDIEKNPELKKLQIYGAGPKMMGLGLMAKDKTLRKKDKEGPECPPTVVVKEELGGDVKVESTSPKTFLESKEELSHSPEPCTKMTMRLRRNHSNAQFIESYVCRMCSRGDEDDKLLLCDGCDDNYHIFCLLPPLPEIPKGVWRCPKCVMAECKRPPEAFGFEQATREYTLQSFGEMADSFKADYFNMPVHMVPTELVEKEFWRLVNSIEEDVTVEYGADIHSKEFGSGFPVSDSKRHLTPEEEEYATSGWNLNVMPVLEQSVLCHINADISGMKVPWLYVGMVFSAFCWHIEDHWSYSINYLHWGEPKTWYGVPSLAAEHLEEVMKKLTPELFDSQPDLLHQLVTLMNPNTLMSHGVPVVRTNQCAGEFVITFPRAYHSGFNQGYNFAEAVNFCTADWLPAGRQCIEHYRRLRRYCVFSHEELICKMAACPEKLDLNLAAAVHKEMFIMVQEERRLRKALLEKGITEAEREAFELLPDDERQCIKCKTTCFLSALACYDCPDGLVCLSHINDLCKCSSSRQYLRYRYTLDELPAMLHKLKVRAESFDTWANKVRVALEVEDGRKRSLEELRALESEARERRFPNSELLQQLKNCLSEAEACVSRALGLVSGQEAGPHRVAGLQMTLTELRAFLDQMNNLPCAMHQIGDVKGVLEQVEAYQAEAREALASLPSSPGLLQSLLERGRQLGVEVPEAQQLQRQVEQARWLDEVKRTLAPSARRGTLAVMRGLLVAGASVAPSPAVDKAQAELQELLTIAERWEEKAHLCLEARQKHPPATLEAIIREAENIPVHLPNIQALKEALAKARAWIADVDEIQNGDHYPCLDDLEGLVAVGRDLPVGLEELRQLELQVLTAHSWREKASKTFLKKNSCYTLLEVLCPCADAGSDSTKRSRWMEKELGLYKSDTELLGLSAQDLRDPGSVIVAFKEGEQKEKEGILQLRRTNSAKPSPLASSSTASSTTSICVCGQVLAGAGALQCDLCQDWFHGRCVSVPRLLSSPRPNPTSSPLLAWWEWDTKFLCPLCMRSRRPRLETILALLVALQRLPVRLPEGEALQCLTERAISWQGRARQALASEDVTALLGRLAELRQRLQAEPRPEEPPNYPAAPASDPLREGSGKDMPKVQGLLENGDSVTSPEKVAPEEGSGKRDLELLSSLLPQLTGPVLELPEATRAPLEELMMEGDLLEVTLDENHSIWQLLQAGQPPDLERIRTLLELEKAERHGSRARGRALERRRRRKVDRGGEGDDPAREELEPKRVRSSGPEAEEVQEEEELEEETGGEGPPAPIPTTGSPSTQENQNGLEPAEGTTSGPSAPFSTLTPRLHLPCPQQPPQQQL
Assay [4] has as its target T3, Egl nine homolog 1 (Homo sapiens, UniProt Q9GZT9). Nature of the assay: Inhibition of PHD2 catalytic domain (unknown origin) after 24 hrs by alphascreen assay.
The target in assay [5] is T4, Lysine-specific demethylase 4A (Homo sapiens, UniProt O75164).
T4 sequence (O75164 whole entry): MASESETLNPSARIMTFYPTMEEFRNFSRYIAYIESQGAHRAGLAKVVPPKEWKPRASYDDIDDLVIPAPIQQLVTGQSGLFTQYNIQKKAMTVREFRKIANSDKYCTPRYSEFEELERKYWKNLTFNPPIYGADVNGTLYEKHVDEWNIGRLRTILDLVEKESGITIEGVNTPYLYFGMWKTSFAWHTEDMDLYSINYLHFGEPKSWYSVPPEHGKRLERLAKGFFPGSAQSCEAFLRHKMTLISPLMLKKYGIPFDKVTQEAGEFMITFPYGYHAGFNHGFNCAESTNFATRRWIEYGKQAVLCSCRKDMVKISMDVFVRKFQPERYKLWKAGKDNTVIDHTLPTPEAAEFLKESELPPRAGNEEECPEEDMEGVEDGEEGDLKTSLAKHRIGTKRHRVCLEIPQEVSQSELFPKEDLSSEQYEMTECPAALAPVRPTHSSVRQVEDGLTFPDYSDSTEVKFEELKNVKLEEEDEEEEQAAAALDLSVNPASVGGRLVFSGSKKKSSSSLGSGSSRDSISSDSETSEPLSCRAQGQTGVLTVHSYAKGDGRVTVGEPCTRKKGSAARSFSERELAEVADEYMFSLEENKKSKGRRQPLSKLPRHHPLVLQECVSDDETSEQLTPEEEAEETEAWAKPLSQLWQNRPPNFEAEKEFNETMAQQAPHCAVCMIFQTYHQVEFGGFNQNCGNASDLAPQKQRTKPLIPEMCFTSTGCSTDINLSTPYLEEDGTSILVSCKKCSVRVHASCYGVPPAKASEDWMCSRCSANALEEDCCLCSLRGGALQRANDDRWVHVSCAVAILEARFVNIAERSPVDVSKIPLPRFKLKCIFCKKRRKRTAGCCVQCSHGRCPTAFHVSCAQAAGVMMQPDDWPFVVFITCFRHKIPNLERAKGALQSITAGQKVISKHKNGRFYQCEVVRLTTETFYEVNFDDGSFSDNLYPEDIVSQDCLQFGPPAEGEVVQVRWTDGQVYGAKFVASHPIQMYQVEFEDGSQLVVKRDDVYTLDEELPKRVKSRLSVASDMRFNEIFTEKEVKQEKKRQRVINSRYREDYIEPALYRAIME

Assay [6] can be described thus: Antiproliferative activity against human SU-DHL6 cells assessed as reduction in cell viability after 120 hrs by ATPlite assay. Particulars: SU-DHL-6, 120 h. The class given is functional, cell-based. Background: In ATP-based viability assays light output follows the ATP content of the culture.
Assay [7] in a line: Antiproliferative activity against human KMS-12-BM cells assessed as reduction in cell viability after 120 hrs by ATPlite assay. The assay is classed as functional, cell-based.
The nature of assay [8]: Antiproliferative activity against human MM1S cells assessed as reduction in cell viability after 120 hrs by ATPlite assay. The assay is classed as functional, cell-based. Particulars: MM1.S.
Assay [9] is described as follows: Antiproliferative activity against human NALM6 cells assessed as reduction in cell viability after 120 hrs by ATPlite assay. The assay is classed as functional, cell-based. Particulars: NALM-6, 120 h.
Assay [10] concerns the target T2, Lysine-specific demethylase 5C.
Assay [11] has the same target. The assay is described as follows: Inhibition of KDM5C (unknown origin) preincubated for 15 mins followed by histone substrate addition measured after 1 hr by alphascreen assay.
Assay [12] deals with Lysine-specific demethylase 6B (Homo sapiens, UniProt O15054). The assay is described as follows: Inhibition of KDM6B (unknown origin) preincubated for 15 mins followed by histone substrate addition measured after 1 hr by alphascreen assay.
Chain of Lysine-specific demethylase 6B (O15054 whole entry): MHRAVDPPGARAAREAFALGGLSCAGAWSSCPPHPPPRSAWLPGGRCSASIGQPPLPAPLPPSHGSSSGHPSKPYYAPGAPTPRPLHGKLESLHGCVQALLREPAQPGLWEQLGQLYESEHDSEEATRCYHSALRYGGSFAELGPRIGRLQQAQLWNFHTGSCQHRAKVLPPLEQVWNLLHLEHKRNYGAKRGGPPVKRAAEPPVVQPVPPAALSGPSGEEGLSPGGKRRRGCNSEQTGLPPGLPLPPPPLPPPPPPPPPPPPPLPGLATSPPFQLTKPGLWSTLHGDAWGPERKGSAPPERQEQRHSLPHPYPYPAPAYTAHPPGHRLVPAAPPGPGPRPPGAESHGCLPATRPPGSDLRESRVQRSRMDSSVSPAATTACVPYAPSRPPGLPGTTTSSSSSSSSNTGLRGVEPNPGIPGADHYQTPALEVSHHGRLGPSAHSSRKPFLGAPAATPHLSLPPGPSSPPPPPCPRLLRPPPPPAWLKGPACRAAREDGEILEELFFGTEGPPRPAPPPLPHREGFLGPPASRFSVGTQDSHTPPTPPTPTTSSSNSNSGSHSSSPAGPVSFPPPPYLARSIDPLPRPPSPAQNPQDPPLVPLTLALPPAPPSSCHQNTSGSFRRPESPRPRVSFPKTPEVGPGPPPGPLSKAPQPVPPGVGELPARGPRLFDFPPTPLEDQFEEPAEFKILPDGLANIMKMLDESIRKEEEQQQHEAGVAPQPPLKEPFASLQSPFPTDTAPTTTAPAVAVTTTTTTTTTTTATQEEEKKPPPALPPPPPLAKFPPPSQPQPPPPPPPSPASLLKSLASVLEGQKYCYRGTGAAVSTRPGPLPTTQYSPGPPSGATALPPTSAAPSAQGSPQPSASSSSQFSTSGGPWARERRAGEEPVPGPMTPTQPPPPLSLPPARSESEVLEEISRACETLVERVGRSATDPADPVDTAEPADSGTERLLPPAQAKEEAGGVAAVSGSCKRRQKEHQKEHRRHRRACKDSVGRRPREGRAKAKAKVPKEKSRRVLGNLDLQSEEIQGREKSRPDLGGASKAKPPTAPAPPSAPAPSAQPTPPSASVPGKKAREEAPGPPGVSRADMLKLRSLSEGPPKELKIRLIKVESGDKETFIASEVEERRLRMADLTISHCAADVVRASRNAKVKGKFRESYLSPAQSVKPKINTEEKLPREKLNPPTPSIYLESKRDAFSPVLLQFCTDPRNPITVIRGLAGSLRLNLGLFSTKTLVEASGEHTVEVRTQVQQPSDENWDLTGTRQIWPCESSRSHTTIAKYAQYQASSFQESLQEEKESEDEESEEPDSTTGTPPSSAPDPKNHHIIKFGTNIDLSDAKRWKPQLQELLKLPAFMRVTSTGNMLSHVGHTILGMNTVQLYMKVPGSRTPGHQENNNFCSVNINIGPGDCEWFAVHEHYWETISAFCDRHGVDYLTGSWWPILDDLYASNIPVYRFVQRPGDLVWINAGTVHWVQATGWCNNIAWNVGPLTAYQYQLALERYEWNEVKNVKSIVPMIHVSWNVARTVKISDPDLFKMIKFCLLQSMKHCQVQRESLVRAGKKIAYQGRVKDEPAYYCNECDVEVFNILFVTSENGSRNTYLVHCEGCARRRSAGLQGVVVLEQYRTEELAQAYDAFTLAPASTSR
The target of assay [13] is T3, Egl nine homolog 1. Nature of the assay: Inhibition of PHD2 (unknown origin) preincubated for 15 mins followed by histone substrate addition measured after 1 hr by alphascreen assay.

T3 sequence (Q9GZT9 whole entry, the tested form may be a part): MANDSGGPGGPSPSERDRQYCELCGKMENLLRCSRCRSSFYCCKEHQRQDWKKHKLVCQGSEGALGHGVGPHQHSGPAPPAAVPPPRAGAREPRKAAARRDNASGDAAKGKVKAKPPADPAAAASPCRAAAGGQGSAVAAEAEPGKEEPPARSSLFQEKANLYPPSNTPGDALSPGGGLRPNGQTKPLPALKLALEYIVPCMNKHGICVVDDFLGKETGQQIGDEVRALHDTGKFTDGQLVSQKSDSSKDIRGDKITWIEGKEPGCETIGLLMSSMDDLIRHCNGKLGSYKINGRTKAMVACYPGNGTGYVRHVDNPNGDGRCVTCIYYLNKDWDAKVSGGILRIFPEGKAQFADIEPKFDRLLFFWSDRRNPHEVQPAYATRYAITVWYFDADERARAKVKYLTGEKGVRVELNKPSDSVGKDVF
Chain of Lysine-specific demethylase 4E (B2RXH2 whole entry): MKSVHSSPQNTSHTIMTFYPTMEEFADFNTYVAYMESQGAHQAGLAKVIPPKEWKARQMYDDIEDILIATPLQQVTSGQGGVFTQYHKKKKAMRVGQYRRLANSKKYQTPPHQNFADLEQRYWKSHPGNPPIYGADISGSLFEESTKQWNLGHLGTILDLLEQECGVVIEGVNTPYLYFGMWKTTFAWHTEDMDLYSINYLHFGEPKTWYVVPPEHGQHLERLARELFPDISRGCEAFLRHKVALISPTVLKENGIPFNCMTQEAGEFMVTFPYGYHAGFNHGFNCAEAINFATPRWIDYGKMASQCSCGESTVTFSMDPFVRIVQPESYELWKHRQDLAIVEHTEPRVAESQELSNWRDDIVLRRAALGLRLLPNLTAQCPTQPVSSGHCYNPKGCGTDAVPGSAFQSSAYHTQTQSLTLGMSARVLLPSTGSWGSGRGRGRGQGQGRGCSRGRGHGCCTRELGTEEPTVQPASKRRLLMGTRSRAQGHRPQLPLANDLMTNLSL

By IC50 is commonly meant the concentration that gives 50% inhibition. Lower therefore signals greater potency. In general, EC50 refers to the concentration giving half of the maximal effect. Consider `CCCCCCCCOC(=O)c1ccc(O)c2ncccc12`, for which the IC50 was 45 µM in assay [1], over 100 µM in [2], over 100 µM in [3] and over 100 µM against Egl nine homolog 1 [4]. In assay [5], this compound had a concentration for a half-maximal effect (EC50) of 3.8 µM.

Turning to `CCN(CCN(C)C)C(=O)CNCc1cc(CNC(=O)C(F)(F)F)ccn1`, the EC50 in assay [6], in assay [7] and in [8] was under 0.25 µM each time.

In the case of `CCN(CC)CCCCNCc1cc(C=O)ccn1`, the 50% effective concentration (EC50) in [9] is under 0.25 µM.

Regarding `CCN(CCN(C)C)C(=O)CNCc1cc(C(=O)O)ccn1`, the IC50 in assay [10] came to 1 µM.

As for `Cc1ccsc1C(NC(=O)c1ccccc1)c1cc(Cl)c2cccnc2c1O` (racemic), the IC50 in assay [11] worked out at 178 µM; in assay [12], 106 µM; against Egl nine homolog 1 [13] it was 96 µM.
